{
  "source": "patent US8354225B1",
  "about": "“Amplification of oligonucleotides containing non-standard nucleobases” (priority 2004, dated 2013)",
  "key": {"[1]": {"conditions": "cited from earlier work"}, "[2]": {"tested_on": "d(puADA) in the template (T3)", "assay": "Paused-extension screen of polymerases", "format": "biochemical", "conditions": "template T3, primer P3, dNTPs, 72° C., 15 seconds", "method": "FIG. 6. Use of Taq and DeepVent (DV) exo^+ polymerases as sequencing tools. Both polymerases were incubated with template T3, primer P3, and dNTPs.P=primer alone, 19 nts in length. […] Deep Vent exo appears to be degrading the primer, and perhaps the product as well.\nRadiolabeled primer P3 (1 pmol) was mixed with template T3 (2 pmol), Thermopol buffer (1.5 μL, 10×), dATP, dCTP, dTTP, dGTP (final conc. 10 μM each), and water to a final volume of 14 μL. The mixture was heated to 95° C. for 10 min. and allowed to cool to ambient for 1 hour. The respective polymerase (Taq, Vent, Deep Vent, Vent exo^−, or Deep Vent exo−) was added (1 μL, 2 U/μL) and the reaction incubated at 72° C. for 15 seconds. The reaction was quenched with 20 mM EDTA in PAGE loading buffer (15 μL) and subsequently analyzed by electrophoresis on a 20% PAGE gel. The gel was analyzed using the MolecularImager software."}},
  "data": [
    {"compound": "O=c1[nH]c(=O)c2[nH]cnc2[nH]1", "note": "[pu(ADA), xanthine]", "values": [
      {"measurement": "pKa of the heterocycle (acid)", "setting": "[1]; free heterocycle", "value": "ca. 5.7"}
    ]},
    {"compound": "Nc1ccnc(N)n1", "note": "[py(DAD), 2,4-diaminopyrimidine]", "values": [
      {"measurement": "pKa of the conjugate acid", "setting": "[1]; protonated heterocycle", "value": "≈ 6.7"}
    ]},
    {"compound": "Taq polymerase: Taq polymerase used as sequencing tool", "values": [
      {"measurement": "elongation upon encountering dX / d(puADA) in the template", "setting": "[2]", "value": "terminates the elongation of a primer"},
      {"measurement": "elongation upon encountering dX / d(puADA) in the template", "setting": "[2]; listed as Taq", "value": "abort elongation"}
    ]}
  ]
}
